From patent publication US20120302569A1, “PHENYL-THIAZOLYL INHIBITORS OF PRO-MATRIX METALLOPROTEINASE ACTIVATION” (priority 2011, published 2012) come the findings set out here.

The target of assay [1] is T1, proMMP9(67-444;ΔFnII) (SEQ ID NO:5) (Homo sapiens, UniProt P14780, DEL216-390).
T1 construct: start methionine (N); made in house; host or cells: E. coli BL21(DE3) RIL
T1 sequence (P14780 with tags, fused parts or gaps DEL216-390): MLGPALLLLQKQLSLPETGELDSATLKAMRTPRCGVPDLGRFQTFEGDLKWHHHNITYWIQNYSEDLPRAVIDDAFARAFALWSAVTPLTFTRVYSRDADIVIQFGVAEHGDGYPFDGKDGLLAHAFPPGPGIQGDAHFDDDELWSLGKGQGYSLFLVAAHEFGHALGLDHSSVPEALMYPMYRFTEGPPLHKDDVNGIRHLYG
Description: ThermoFluor with proMMP9(67-444;ΔFnII). The conditions noted are these: read-out: proMMP9(67-444; ΔFnII) (SEQ ID NO: 5) binding. On the procedure: (§1) The ThermoFluor® (TF) assay is a 384-well plate-based binding assay that measures thermal stability of proteins (Biomol Screen 2001, 6, 429-40; Biochemistry 2005, 44, 5258-66). The experiments were carried out using instruments available from Johnson & Johnson Pharmaceutical Research & Development, LLC. TF dye used in all experiments was […] (1,8-ANS) (Invitrogen: A-47).
(§2) Compounds were arranged in a pre-dispensed plate (Greiner Bio-one: 781280), wherein compounds were serially diluted in 100% DMSO across 11 columns within a series. Columns 12 and 24 were used as DMSO reference and contained no compound. For multiple compound concentration-response experiments, the compound aliquots (50 nL) were robotically predispensed directly into black 384-well polypropylene PCR microplates (Abgene: TF-0384/k) using a Cartesian Hummingbird liquid handler (DigiLab, Holliston, Mass.). Following compound dispense, protein and dye solutions were added to achieve the final assay volume of 3 μL. The assay solutions were overlayed with 1 μL of silicone oil (Fluka, type DC 200: 85411) to prevent evaporation.
(§3) Assay plates were robotically loaded onto a thermostatically controlled PCR-type thermal block and then heated from 40 to 90° C. at a ramp-rate of 1° C./min for all experiments. Fluorescence was measured by continuous illumination with UV light (Hamamatsu LC6) supplied via fiber optics and filtered through a band-pass filter (380-400 nm; >6 OD cutoff). Fluorescence emission of the entire 384-well plate was detected by measuring light intensity using a CCD camera (Sensys, Roper Scientific) filtered to detect 500±25 nm, resulting in simultaneous and independent readings of all 384 wells. A single image with 20-sec exposure time was collected at each temperature, and the sum of the pixel intensity in a given area of the assay plate was recorded vs temperature and fit to standard equations to yield the Tm (J Biomol Screen 2001, 6, 429-40).
(§4) Thermodynamic parameters necessary for fitting compound binding for each proMMP were estimated by differential scanning calorimetry (DSC) and from ThermoFluor® data. The heat capacity of unfolding for each protein was estimated from the molecular weight and from ThermoFluor® dosing data.
ThermoFluor® with proMMP9(67-444;ΔFnII) (SEQ ID NO:5)
The protein sample preparations had to include a desalting buffer exchange step via a PD-10 gravity column (GE Healthcare). The desalting buffer exchange was performed prior to diluting the protein to the final assay concentration of 3.5 μM proMMP9(67-444;ΔFnII) (SEQ ID NO:5). The concentration of proMMP9(67-444;ΔFnII) (SEQ ID NO:5) was determined spectrophotometrically based on a calculated extinction coefficient of ε280=33900 M^−1cm^−1, a calculated molecular weight of 22.6 kDa, and calculated pI of 5.20. ThermoFluor® reference conditions were defined as follows: 80 μg/mL (3.5 μM) proMMP9(67-444;ΔFnII) (SEQ ID NO:5), 50 μM 1,8-ANS, pH 7.0 Buffer (50 mM HEPES pH 7.0, 100 mM NaCl, 0.001% Tween-20, 2.5 mM MgCl2, 300 μM CaCl2). The thermodynamic parameters for proMMP9(67-444;ΔFnII) (SEQ ID NO:5) are as follows: Tm (° C.)=63 (+/−0.1), ΔUH(Tm) (cal mol^−1)=105000(+/−5000), ΔUS(Tm) (cal mol^−1 K^−1)=450, […].
Background: Differential scanning fluorimetry follows unfolding on heating by fluorescence.

In assay [2] the target is T2, full-length proMMP9(1-707) (SEQ ID NO:1) (Homo sapiens, UniProt P14780, R574P).
T2 construct: made in house; host or cells: HEK293 (proMMP9, secreted); E. coli (MMP3)
T2 sequence (P14780 20-707 R574P): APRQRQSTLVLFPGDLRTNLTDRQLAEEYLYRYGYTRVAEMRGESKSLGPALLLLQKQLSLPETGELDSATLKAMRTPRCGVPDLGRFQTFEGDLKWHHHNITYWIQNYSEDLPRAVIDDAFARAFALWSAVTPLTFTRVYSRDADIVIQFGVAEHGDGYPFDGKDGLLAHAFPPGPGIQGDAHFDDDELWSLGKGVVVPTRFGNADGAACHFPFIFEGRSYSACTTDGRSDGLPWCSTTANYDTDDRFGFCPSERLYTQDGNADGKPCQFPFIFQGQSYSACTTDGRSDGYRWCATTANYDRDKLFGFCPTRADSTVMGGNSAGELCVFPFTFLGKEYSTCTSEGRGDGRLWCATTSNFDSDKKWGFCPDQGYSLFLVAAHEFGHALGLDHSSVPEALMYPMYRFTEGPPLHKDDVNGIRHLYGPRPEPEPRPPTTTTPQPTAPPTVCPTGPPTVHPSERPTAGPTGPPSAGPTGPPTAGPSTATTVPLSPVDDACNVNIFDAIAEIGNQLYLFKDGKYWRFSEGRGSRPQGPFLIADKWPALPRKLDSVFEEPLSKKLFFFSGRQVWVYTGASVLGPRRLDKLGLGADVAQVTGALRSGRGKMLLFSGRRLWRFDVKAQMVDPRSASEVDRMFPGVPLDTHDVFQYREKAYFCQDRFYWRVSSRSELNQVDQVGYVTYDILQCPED
Description: proMMP9/MMP3 P126 Activation Assay. The settings on record: proMMP9(1-707) from HEK293 cells activated by catalytic MMP3. In kind it is biochemical. On the procedure: proMMP9/MMP3 P126 Activation Assay
The reaction volume was 50 μL. […] Reactivity of residual MMP3 towards P-126 substrate was minimal under these conditions.

Assay [3] concerns the target T3, proMMP9(20-445;ΔFnII) (SEQ ID NO:6) (Homo sapiens, UniProt P14780, DEL216-390).
T3 construct: start methionine (N); made in house; host or cells: E. coli BL21(DE3) RIL
T3 sequence (P14780 with tags, fused parts or gaps DEL216-390): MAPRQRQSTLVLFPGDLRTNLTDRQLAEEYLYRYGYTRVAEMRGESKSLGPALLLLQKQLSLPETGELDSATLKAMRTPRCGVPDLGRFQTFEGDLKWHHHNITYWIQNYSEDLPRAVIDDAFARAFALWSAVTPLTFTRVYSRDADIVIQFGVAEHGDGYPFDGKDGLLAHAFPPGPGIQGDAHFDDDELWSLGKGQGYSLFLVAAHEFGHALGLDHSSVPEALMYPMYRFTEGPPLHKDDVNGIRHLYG
Description: ThermoFluor with proMMP9(20-445;ΔFnII). The settings on record: read-out: proMMP9(20-445; ΔFnII) (SEQ ID NO: 6) binding. On the procedure:
as §1, §2, §3, §4
ThermoFluor® with proMMP9(20-445;ΔFnII) (SEQ ID NO:6)
The protein sample preparations included a desalting buffer exchange step via a PD-10 gravity column (GE Healthcare). The desalting buffer exchange was performed prior to diluting the protein to the final assay concentration of 2.8 μM proMMP9(20-445;ΔFnII) (SEQ ID NO:6). The concentration of proMMP9(20-445;ΔFnII) (SEQ ID NO:6) was determined spectrophotometrically based on a calculated extinction coefficient of ε280=39880 M^−1cm^−1, a calculated molecular weight of 28.2 kDa, and calculated pI of 5.5. ThermoFluor® reference conditions were define as follows: 80 μg/mL (2.8 μM) proMMP9(20-445;ΔFnII) (SEQ ID NO:6), 50 μM 1,8-ANS, pH 7.0 Buffer (50 mM HEPES pH 7.0, 100 mM NaCl, 0.001% Tween-20, 2.5 mM MgCl2, 300 μM CaCl2). The thermodynamic parameters for proMMP9(20-445;ΔFnII) (SEQ ID NO:6) are as follows: Tm (° C.)=72 (+/−0.1), ΔUH(Tm) (cal mol^−1)=160000(+/−5000), ΔUS(Tm) (cal mol^−1 K^−1)=434, ΔUCp (cal mol^−1 K^−1)=2400.

Structures can show the parent of a compound that is named as a salt. Some results are limits rather than exact numbers.

For the compound `CC(C)Oc1ccc(C(N)=O)cc1Nc1nc(-c2ccc(OCCN3CCC(F)(F)CC3)cc2)cs1` [Example 32, 3-((4-(4-(2-(4,4-Difluoropiperidin-1-yl)ethoxy)phenyl)thiazol-2-yl)amino)-4-isopropoxybenzamide.TFA], the Kd worked out at 0.39 µM in assay [1] and 0.1 µM in assay [3]. This compound yielded an IC50 in assay [2] of 0.43 µM.

Regarding `NS(=O)(=O)c1ccc(OC(F)(F)F)c(Nc2nc(-c3ccc(OCCN4CCOCC4)cc3)cs2)c1` [Example 30, 3-((4-(4-(2-Morpholinoethoxy)phenyl)thiazol-2-yl)amino)-4-(trifluoromethoxy)benzenesulfonamide.TFA], the Kd in assay [1] was 1.3 µM; in assay [3], 1.2 µM. The same compound came in with an IC50 in assay [2] of 1.1 µM.

As to `CC(C)Oc1ccc(S(N)(=O)=O)cc1Nc1nc(-c2ccc(OCCN3CCC(F)(F)CC3)cc2)cs1` [Example 31, 3-((4-(4-(2-(4,4-Difluoropiperidin-1-yl)ethoxy)phenyl)thiazol-2-yl)amino)-4-isopropoxybenzenesulfonamide.TFA], the Kd worked out at 0.15 µM in assay [1] and 0.075 µM in assay [3]. The compound also had an IC50 in assay [2] of 1.1 µM.

Turning to `COc1ccc(F)cc1Nc1nc(-c2ccc(OCCCN3CCOCC3)cc2)cs1` [Example 71, N-(5-fluoro-2-methoxyphenyl)-4-(4-(3-morpholinopropoxy)phenyl)thiazol-2-amine.TFA], the Kd in assay [1] is 1.8 µM; in assay [3], 44 µM. The IC50 in assay [2] is 0.2 µM.

In the case of `NS(=O)(=O)c1ccc(OC(F)(F)F)c(Nc2nc(-c3ccc(OCCN4CCC(F)CC4)cc3)cs2)c1` [Example 41, 3-((4-(4-(2-(4-fluoropiperidin-1-yl)ethoxy)phenyl)thiazol-2-yl)amino)-4-(trifluoromethoxy)benzenesulfonamide.TFA], the figures for the Kd in assay [1] and in assay [3] were 0.18 µM and 0.33 µM, respectively. In assay [2], this compound came in with an IC50 of 0.62 µM.

In the case of `CC(C)Oc1ccc(C(N)=O)cc1Nc1nc(-c2ccc(C3=CCNCC3)cc2)cs1` [Example 16, 4-Isopropoxy-3-((4-(4-(1,2,3,6-tetrahydropyridin-4-yl)phenyl)thiazol-2-yl)amino)benzamide.TFA], the Kd amounted to 0.033 µM in assay [1] and 0.014 µM in assay [3]. This compound returned an IC50 in assay [2] of 0.049 µM.

As to `CC(C)Oc1ccc(S(N)(=O)=O)cc1Nc1nc(-c2ccc(CN3CCC(F)CC3)cc2)cs1` [Example 55, 3-((4-(4-((4-fluoropiperidin-1-yl)methyl)phenyl)thiazol-2-yl)amino)-4-isopropoxybenzenesulfonamide.TFA], the Kd in assay [1] amounted to 0.053 µM; in assay [3], 0.03 µM. For the same compound, the IC50 in assay [2] is 0.14 µM.

`CC(C)Oc1ccc(S(N)(=O)=O)cc1Nc1nc(-c2ccc(N3CCN(Cc4ccccc4)CC3)cc2)cs1` [Example 6, 3-((4-(4-(4-Benzylpiperazin-1-yl)phenyl)thiazol-2-yl)amino)-4-isopropoxybenzenesulfonamide.TFA]: the Kd worked out at 0.65 µM in assay [1] and 0.41 µM in assay [3]. In assay [2], this compound yielded an IC50 of 1.2 µM.

Regarding `CCN1CCC(c2ccc(-c3csc(Nc4cc(S(N)(=O)=O)ccc4OC(C)C)n3)cc2)CC1` [Example 26, 3-((4-(4-(1-Ethylpiperidin-4-yl)phenyl)thiazol-2-yl)amino)-4-isopropoxybenzenesulfonamide.TFA], the Kd in assay [1] worked out at 0.046 µM; in assay [3], 0.025 µM. In assay [2], this compound registered an IC50 of 0.044 µM.

Regarding `CC(C)Oc1ccc(S(N)(=O)=O)cc1Nc1nc(-c2ccc(C3CCN(C)CC3)cc2)cs1` [Example 25, 4-Isopropoxy-3-((4-(4-(1-methylpiperidin-4-yl)phenyl)thiazol-2-yl)amino)benzenesulfonamide.TFA], the Kd came to 0.03 µM in assay [1] and 0.027 µM in assay [3]. Besides, 0.069 µM corresponded to half-maximal inhibition in assay [2] (IC50).

On to `CCN1CCN(c2ccc(-c3csc(Nc4cc(C(N)=O)ccc4OC(C)C)n3)cc2)CC1` [Example 9, 3-((4-(4-(4-Ethylpiperazin-1-yl)phenyl)thiazol-2-yl)amino)-4-isopropoxybenzamide.TFA], for which the Kd in assay [1] amounted to 0.094 µM; in assay [3], 0.034 µM. Further, the IC50 in assay [2] amounted to 0.089 µM.

As to `CC(C)Oc1ccc(C(N)=O)cc1Nc1nc(-c2ccc(CN3CC[C@@H](F)C3)cc2)cs1` [Example 52, (R)-3-((4-(4-((3-fluoropyrrolidin-1-yl)methyl)phenyl)thiazol-2-yl)amino)-4-isopropoxybenzamide.TFA], the results for the Kd in assay [1] and in assay [3] were 0.087 µM and 0.027 µM, respectively. In assay [2], half-maximal inhibition (IC50) required 0.11 µM.

`CC(C)Oc1ccc(C(N)=O)cc1Nc1nc(-c2ccc(CN3CCOCC3)cc2)cs1` [Example 58, 4-isopropoxy-3-((4-(4-(morpholinomethyl)phenyl)thiazol-2-yl)amino)benzamide.TFA]: the Kd turned out to be 0.21 µM in assay [1] and 0.056 µM in assay [3]. In addition, in assay [2], the IC50 turned out to be 0.25 µM.

For `CC(C)Oc1ccc(C(N)=O)cc1Nc1nc(-c2ccc(N3CCN(Cc4ccccc4)CC3)cc2)cs1` [Example 11, 3-((4-(4-(4-Benzylpiperazin-1-yl)phenyl)thiazol-2-yl)amino)-4-isopropoxybenzamide.TFA], the values for the Kd in assay [1] and in assay [3] were 0.87 µM and 0.38 µM, respectively. Inhibition in assay [2] was half-maximal at 0.74 µM (IC50).

As for `COc1ccc(F)cc1Nc1nc(-c2ccc(OCCN3CCC(F)CC3)cc2)cs1` [Example 68, N-(5-fluoro-2-methoxyphenyl)-4-(4-(2-(4-fluoropiperidin-1-yl)ethoxy)phenyl)thiazol-2-amine.TFA], the Kd in assay [1] is 2.6 µM; in assay [3], greater than 19 µM. For the same compound, 1.3 µM corresponded to half-maximal inhibition in assay [2] (IC50).

The IC50 is the concentration that gives 50% inhibition. Read a high IC50 as a need for much substance.
